The results in this text go back to patent US10793542B2, “Hetroarylamine compounds for modulating the hedgehog pathway and preparing method and uses thereof” (DEVELOPMENT CENTER FOR BIOTECHNOLOGY, priority 2016, dated 2020).

Holding throughout (type): cell-based
For assay [1], the target named is T1, Smo wild type (Homo sapiens, UniProt Q99835).
T1 construct: expressed in transfected cells; host or cells: C3H10T1/2 cells (ATCC CCL-226), transient transfection with pLPCX-SMO
The assay is described as follows: Reporter assay of C3H10T1/2-Gli-Luc cells transfected with wild-type Smo, without SAG. As to conditions: C3H10T1/2 cells transfected with pLPCX-SMO, no SAG, 48 hr; read-out: Inhibition of C3H10T1/2-Gli-Luc-Smo-WT [IC50. A digest of the protocol:
(§1)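 C3H10T1/2-Gli-Luc cells transiently transfected with wild-type or D473H SMO, replated in 0.5% FBS RPMI and incubated with compounds 48 h at 37 °C without SAG. Dual-luciferase, firefly normalized to Renilla; scaled to DMSO (100%) and 10 μM ALLO-2 (0%); IC50 by nonlinear regression.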
(Reporter assays use an easily measured gene product as a stand-in for the process of interest.)

Assay [2] has as its system hedgehog pathway (pGL3-7xGli-Luciferase reporter in C3H10T1/2 cells). The assay is described as follows: Transient transfection of C3H10T1/2 and Gli-Luc reporter assay with SAG stimulation. As to conditions: Mus musculus, C3H 10T1/2, SAG 20 nM, 48 hr, read-out: Inhibition of Gli-Luc expression [IC50. The essentials: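 C3H10T1/2 cells were transiently transfected with a 7xGli-firefly luciferase reporter and a TK-Renilla control, then treated with serially diluted compounds plus 20 nM SAG in 0.5% FBS for 48 h at 37 °C. Firefly signal was normalized to Renilla and scaled between DMSO with SAG (100%) and without SAG (0%). IC50 was obtained by nonlinear regression.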

In assay [3] the target is T2, Smo D473H mutant (Homo sapiens, UniProt Q99835, D473H).
T2 construct: expressed in transfected cells; host or cells: C3H10T1/2 cells (ATCC CCL-226), transient transfection with pLPCX-SMO-D473H
The assay is described as follows: Reporter assay of C3H10T1/2-Gli-Luc cells transfected with Smo D473H mutant, without SAG. To be noted: C3H10T1/2 cells transfected with pLPCX-SMO-D473H, no SAG, 48 hr; read-out: Inhibition of C3H10T1/2-Gli-Luc-Smo-D473H [IC50. The essentials: as §1

T2 sequence (Q99835 28-787 D473H): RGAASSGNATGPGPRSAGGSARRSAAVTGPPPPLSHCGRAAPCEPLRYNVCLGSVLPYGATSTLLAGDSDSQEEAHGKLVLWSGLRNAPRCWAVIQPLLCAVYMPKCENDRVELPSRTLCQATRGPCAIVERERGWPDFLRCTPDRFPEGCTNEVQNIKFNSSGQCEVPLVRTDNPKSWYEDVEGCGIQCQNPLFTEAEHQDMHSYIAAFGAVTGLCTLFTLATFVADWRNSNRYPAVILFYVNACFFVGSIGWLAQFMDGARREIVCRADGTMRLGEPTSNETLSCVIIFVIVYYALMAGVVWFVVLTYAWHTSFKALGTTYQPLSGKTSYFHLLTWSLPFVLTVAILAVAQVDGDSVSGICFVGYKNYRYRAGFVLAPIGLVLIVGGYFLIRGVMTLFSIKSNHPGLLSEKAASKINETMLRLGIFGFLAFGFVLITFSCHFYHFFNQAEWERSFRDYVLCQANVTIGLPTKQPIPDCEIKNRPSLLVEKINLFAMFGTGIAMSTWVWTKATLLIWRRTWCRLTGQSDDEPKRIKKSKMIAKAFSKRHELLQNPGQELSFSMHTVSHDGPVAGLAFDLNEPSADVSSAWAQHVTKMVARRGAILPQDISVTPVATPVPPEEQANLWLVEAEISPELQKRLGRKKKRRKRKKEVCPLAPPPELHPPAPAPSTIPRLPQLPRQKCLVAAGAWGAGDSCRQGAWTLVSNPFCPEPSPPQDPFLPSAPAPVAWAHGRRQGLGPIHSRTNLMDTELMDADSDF
T1 sequence (Q99835 28-787): as the sequence (Q99835 28-787 D473H) above, with H446D counted along it

Regarding `COc1cnc(Nc2ccc(C(=O)Nc3cc(CN4CCNCC4)ccc3C)cc2F)nc1-c1ccc(F)cc1` [Compound 80, 3-Fluoro-4-[4-(4-fluoro-phenyl)-5-methoxy-pyrimidin-2-ylamino]-N-(2-methyl-5-piperazin-1-ylmethyl-phenyl)-benzamide], the IC50 in assay [1] was 100 to 1000 nM; in assay [2], less than 100 nM; in assay [3], 100 to 1000 nM.

With `CSc1cnc(Nc2ccc(C(=O)Nc3cc(CN4CCOCC4)ccc3C)cc2)cc1-c1ccc(OC(F)(F)F)cc1` [Compound 81, N-(2-Methyl-5-morpholin-4-ylmethyl-phenyl)-4-[5-methylsulfanyl-4-(4-trifluoromethoxy-phenyl)-pyridin-2-ylamino)-benzamide], the IC50 in assay [1], in assay [2] and in assay [3] was less than 100 nM each time.

Turning to `CSc1cnc(Nc2ccc(C(=O)Nc3cc(CN4CCN(C)CC4)ccc3C)cc2)cc1-c1ccc(OC(F)(F)F)cc1` [Compound 82, N-[2-Methyl-5-(4-methyl-piperazin-1-ylmethyl)-phenyl]-4-[5-methylsulfanyl-4-(4-trifluoromethoxy-phenyl)-pyridin-2-ylamino]-benzamide], the IC50 in assay [1], in assay [2] and in assay [3] was less than 100 nM in each case.

For the compound `CSc1cnc(Nc2ccc(C(=O)Nc3cc(CN(C)C)ccc3C)cc2)cc1-c1ccc(OC(F)(F)F)cc1` [Compound 83, N-(5-Dimethylaminomethyl-2-methyl-phenyl)-4-[5-methylsulfanyl-4-(4-trifluoromethoxy-phenyl)-pyridin-2-ylamino]-benzamide], the IC50 in assay [1], in assay [2] and in assay [3] was less than 100 nM in each case.

Consider `CSc1cnc(Nc2ccc(C(=O)Nc3cc(CN4CCOCC4)ccc3C)cc2)cc1-c1ccc(F)cc1` [Compound 84, 4-((4-(4-fluorophenyl)-5-(methylthio)pyridin-2-yl)amino)-N-(2-methyl-5-(morpholinomethyl)phenyl)benzamide], for which the IC50 in assay [1] is less than 100 nM; in assay [2] it was less than 100 nM; in assay [3], 100 to 1000 nM.

On to `Cc1ccc(CN2CCOCC2)cc1NC(=O)c1ccc(Nc2ncc([S+](C)[O-])c(-c3ccc(OC(F)(F)F)cc3)n2)cc1` (stereo not drawn) [Compound 85, 4-[5-Methanesulfinyl-4-(4-trifluoromethoxy-phenyl)-pyrimidin-2-ylamino]-N-(2-methyl-5-morpholin-4-ylmethyl-phenyl)-benzamide], for which the IC50 in assay [1], in assay [2] and in assay [3] was less than 100 nM in each case.

Consider `CCN(CC)Cc1ccc(C)c(NC(=O)c2ccc(Nc3cc(-c4ccc(OC(F)(F)F)cc4)c(SC)cn3)cc2)c1` [Compound 87, N-(5-((diethylamino)methyl)-2-methylphenyl)-4-((5-(methylthio)-4-(4-(trifluoromethoxy)phenyl)pyridin-2-yl)amino)benzamide], for which the IC50 in assay [1], in assay [2] and in assay [3] was less than 100 nM in each case.

As for `Cc1ccc(CN2CCOCC2)cc1NC(=O)c1ccc(Nc2ncc(N)c(-c3ccc(OC(F)(F)F)cc3)n2)cc1` [Compound 88, 4-((5-amino-4-(4-(trifluoromethoxy)phenyl)pyrimidin-2-yl)amino)-N-(2-methyl-5-(morpholinomethyl)phenyl)benzamide], the IC50 in assay [1], in assay [2] and in assay [3] was less than 100 nM in each case.

In the case of `CSc1cnc(Nc2ccc(C(=O)Nc3cc(CN4CCN(C)CC4)ccc3C)cc2)cc1-c1ccc(F)cc1` [Compound 89, 4-((4-(4-fluorophenyl)-5-(methylthio)pyridin-2-yl)amino)-N-(2-methyl-5-((4-methylpiperazin-1-yl)methyl)phenyl)benzamide], the IC50 was less than 100 nM in assay [1], less than 100 nM in assay [2] and 100 to 1000 nM in assay [3].

Regarding `CSc1cnc(Nc2ccc(C(=O)Nc3cc(CN4CCN(C)CC4)ccc3C)cc2)cc1-c1ccc(C(F)(F)F)cc1` [Compound 90, N-(2-methyl-5-((4-methylpiperazin-1-yl)methyl)phenyl)-4-((5-(methylthio)-4-(4-(trifluoromethyl)phenyl)pyridin-2-yl)amino)benzamide], the IC50 in assay [1] is less than 100 nM; in assay [2] it was less than 100 nM; in assay [3], 100 to 1000 nM.

For the compound `CNc1cnc(Nc2ccc(C(=O)Nc3cc(CN4CCOCC4)ccc3C)cc2)nc1-c1ccc(OC(F)(F)F)cc1` [Compound 91, N-(2-methyl-5-(morpholinomethyl)phenyl)-4-((5-(methylamino)-4-(4-(trifluoromethoxy)phenyl)pyrimidin-2-yl)amino)benzamide], the IC50 in assay [1], in assay [2] and in assay [3] was less than 100 nM each time.
